Test results taken from patent publication US20160120865A1, “TOPICAL TREATMENT OF LOCALIZED SCLERODERMA” (PRECISION DERMATOLOGY, INC., priority 2013, published 2016).

Test system: TGFβ activated genes
Assay: TGF-β osmotic pump mouse skin model, gene expression by nanostring
Type: in vivo, C57BL/6 mice
Parameters: key to Adam12 expression, TGFb/TGFbimatinib / spp1 expression, TGFb/TGFbimatinib / Thbs1 expression, TGFb/TGFbimatinib / Col1a1 expression, TGFb/TGFbimatinib / Sfrp2 expression, TGFb/TGFbimatinib / acta2 expression, TGFb/TGFbimatinib / Angpt2 expression, TGFb/TGFbimatinib / lox expression, TGFb/TGFbimatinib / Fmod expression, TGFb/TGFbimatinib / Wisp1 expression, TGFb/TGFbimatinib / serpine1 expression, TGFb/TGFbimatinib: TGFβ treatment works and the effect is blocked by imatinib in the local skin (+); DS+ skin (−)
Details: for serpine1 expression, TGFb/TGFbimatinib / Adam12 expression, TGFb/TGFbimatinib / spp1 expression, TGFb/TGFbimatinib / Thbs1 expression, TGFb/TGFbimatinib / Col1a1 expression, TGFb/TGFbimatinib / Sfrp2 expression, TGFb/TGFbimatinib / acta2 expression, TGFb/TGFbimatinib / Angpt2 expression, TGFb/TGFbimatinib / lox expression, TGFb/TGFbimatinib / Fmod expression, TGFb/TGFbimatinib / Wisp1 expression, TGFb/TGFbimatinib: imatinib cream topical 2 times per day, 7 days; for serpine1 expression, TGFb/TGFbimatinib: FIG. 3; for Adam12 expression, TGFb/TGFbimatinib: FIG. 4; for spp1 expression, TGFb/TGFbimatinib: FIG. 5; for Thbs1 expression, TGFb/TGFbimatinib: FIG. 6; for Col1a1 expression, TGFb/TGFbimatinib: FIG. 7; for Sfrp2 expression, TGFb/TGFbimatinib: FIG. 8; for acta2 expression, TGFb/TGFbimatinib: FIG. 9; for Angpt2 expression, TGFb/TGFbimatinib: FIG. 10; for lox expression, TGFb/TGFbimatinib: FIG. 11; for Fmod expression, TGFb/TGFbimatinib: FIG. 12; for Wisp1 expression, TGFb/TGFbimatinib: FIG. 13
Procedure: C57BL/6 mice were obtained from The Jackson Laboratory (Bar Harbor, Me.). Osmotic pumps (Alzet, model 2001) designed to deliver 1 μL/h were loaded with TGF-β (1.25 μg) in phosphate buffered saline (PBS) supplemented with 0.1 mg/mL bovine serum albumin (BSA). Pumps were implanted subcutaneously in 8-week-old mice, who were subsequently treated with imatinib or placebo cream. After […], mice were sacrificed, and the skin (˜1 cm^2) surrounding the pump outlet was homogenized in TRIzol (Invitrogen) for preparation of RNA, or fixed in formalin. Skin from mice treated with PBS and TGF-β was analyzed using nanostring technology. A set of 50 genes including inflammatory genes, macrophages markers, TGF-β-regulated genes, and others were analyzed. 100 ng of RNA per sample was used and gene expression was normalized to the expression of 8 housekeeping-genes.
TGFb 2.5 μg/mL in 7 day Alzet pump.
imatinib cream topical application 7 days (2 times per day)
(3) −DS=Far from local skin

Cc1ccc(NC(=O)c2ccc(CN3CCN(C)CC3)cc2)cc1Nc1nccc(-c2cccnc2)n1 [imatinib]
serpine1 expression, TGFb/TGFbimatinib (DS+ (near local skin)): (−) | Adam12 expression, TGFb/TGFbimatinib (DS+ (near local skin)): (−) | spp1 expression, TGFb/TGFbimatinib (DS+ (near local skin)): (−) | Thbs1 expression, TGFb/TGFbimatinib (DS+ (near local skin)): (−) | Col1a1 expression, TGFb/TGFbimatinib (DS+ (near local skin)): (−) | Sfrp2 expression, TGFb/TGFbimatinib (DS+ (near local skin)): (−) | acta2 expression, TGFb/TGFbimatinib (DS+ (near local skin)): (−) | Angpt2 expression, TGFb/TGFbimatinib (DS+ (near local skin)): (−) | lox expression, TGFb/TGFbimatinib (DS+ (near local skin)): (−) | Fmod expression, TGFb/TGFbimatinib (DS+ (near local skin)): (−) | Wisp1 expression, TGFb/TGFbimatinib (DS+ (near local skin)): (−) | serpine1 expression, TGFb/TGFbimatinib (LS (local skin)): (+) | Adam12 expression, TGFb/TGFbimatinib (LS (local skin)): (+) | spp1 expression, TGFb/TGFbimatinib (LS (local skin)): (+) | Thbs1 expression, TGFb/TGFbimatinib (LS (local skin)): (+?) | Col1a1 expression, TGFb/TGFbimatinib (LS (local skin)): (+) | Sfrp2 expression, TGFb/TGFbimatinib (LS (local skin)): (+) | acta2 expression, TGFb/TGFbimatinib (LS (local skin)): (+) | Angpt2 expression, TGFb/TGFbimatinib (LS (local skin)): (+) | lox expression, TGFb/TGFbimatinib (LS (local skin)): (+) | Fmod expression, TGFb/TGFbimatinib (LS (local skin)): (+) | Wisp1 expression, TGFb/TGFbimatinib (LS (local skin)): (+) | effect of TGFβ treatment in skin (local skin (+) and DS+ skin (−), topical imatinib cream): blocked | activation of TGFβ activated genes (mouse skin, topical imatinib cream): inhibits the activation of these genes
